Test results as given in the supplement of paper PMC10307832.

What was measured:
Experiment in all cases: relative viability (nuclei count vs DMSO), 5 days (fraction); higher = more cells survive
COR-L23 = system: COR-L23
Outline: (§1)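 Medians of duplicate plates are given as relative viability. That measure is the nuclei count in treated wells divided by the count in vehicle wells. Counts were taken on 4× images of lung cancer cell lines in 1536-well plates, 5 days after pin-tool dosing the day after seeding with one drug alone or a fixed anchor-drug dose plus five library-drug doses (not always all listed) in √10 steps.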

ChaGo-K-1 = system: ChaGo-K-1
Outline: as §1

EMC-BAC-2 = system: EMC-BAC-2
Outline: as §1

HARA = system: HARA
Outline: as §1

HCC-15 = system: HCC-15
Outline: as §1

HCC-366 = system: HCC-366
Outline: as §1

HCC-78 = system: HCC-78
Outline: as §1

HOP-62 = system: HOP-62
Outline: as §1

LC-2-ad = system: LC-2-ad
Outline: as §1

NCI-H1395 = system: NCI-H1395
Outline: as §1

NCI-H1793 = system: NCI-H1793
Outline: as §1

NCI-H1944 = system: NCI-H1944
Outline: as §1

NCI-H1993 = system: NCI-H1993
Outline: as §1

NCI-H2023 = system: NCI-H2023
Outline: as §1

NCI-H2126 = system: NCI-H2126
Outline: as §1

NCI-H2228 = system: NCI-H2228
Outline: as §1

NCI-H23 = system: NCI-H23
Outline: as §1

NCI-H2405 = system: NCI-H2405
Outline: as §1

NCI-H838 = system: NCI-H838
Outline: as §1

SK-LU-1 = system: SK-LU-1
Outline: as §1

COc1cc2nccc(Oc3ccc(NC(=O)Nc4cc(C)on4)c(Cl)c3)c2cc1OC [Tivozanib] + CC1(C)CCC(c2ccc(Cl)cc2)=C(CN2CCN(c3ccc(C(=O)NS(=O)(=O)c4ccc(N[C@H](CCN5CCOCC5)CSc5ccccc5)c(S(=O)(=O)C(F)(F)F)c4)cc3)CC2)C1 [Navitoclax] (partner 0.5 µM)
relative viability (COR-L23; first compound 0.005 µM): 0.955
relative viability (COR-L23; first compound 0.01581 µM): 0.998
relative viability (COR-L23; first compound 0.05 µM): 1.04
relative viability (COR-L23; first compound 0.1581 µM): 0.935
relative viability (COR-L23; first compound 0.5 µM): 0.817
relative viability (ChaGo-K-1; first compound 0.005 µM): 0.846
relative viability (ChaGo-K-1; first compound 0.01581 µM): 1.03
relative viability (ChaGo-K-1; first compound 0.05 µM): 0.802
relative viability (ChaGo-K-1; first compound 0.1581 µM): 0.645
relative viability (ChaGo-K-1; first compound 0.5 µM): 0.799
relative viability (EMC-BAC-2; first compound 0.005 µM): 1.27
relative viability (EMC-BAC-2; first compound 0.01581 µM): 1.11
relative viability (EMC-BAC-2; first compound 0.05 µM): 1.21
relative viability (EMC-BAC-2; first compound 0.1581 µM): 1.14
relative viability (EMC-BAC-2; first compound 0.5 µM): 1.24
relative viability (HARA; first compound 0.005 µM): 1.11
relative viability (HARA; first compound 0.01581 µM): 1.04
relative viability (HARA; first compound 0.05 µM): 1.19
relative viability (HARA; first compound 0.1581 µM): 1.19
relative viability (HARA; first compound 0.5 µM): 1.15
relative viability (HCC-15; first compound 0.005 µM): 0.719
relative viability (HCC-15; first compound 0.01581 µM): 0.676
relative viability (HCC-15; first compound 0.05 µM): 0.67
relative viability (HCC-15; first compound 0.1581 µM): 0.742
relative viability (HCC-15; first compound 0.5 µM): 0.728
relative viability (HCC-366; first compound 0.005 µM): 1.05
relative viability (HCC-366; first compound 0.01581 µM): 1.05
relative viability (HCC-366; first compound 0.05 µM): 0.947
relative viability (HCC-366; first compound 0.1581 µM): 1.01
relative viability (HCC-366; first compound 0.5 µM): 1.08
relative viability (HCC-78; first compound 0.005 µM): 0.656
relative viability (HCC-78; first compound 0.01581 µM): 0.808
relative viability (HCC-78; first compound 0.05 µM): 0.765
relative viability (HCC-78; first compound 0.1581 µM): 0.756
relative viability (HCC-78; first compound 0.5 µM): 0.677
relative viability (HOP-62; first compound 0.005 µM): 0.996
relative viability (HOP-62; first compound 0.01581 µM): 1.08
relative viability (HOP-62; first compound 0.05 µM): 1.07
relative viability (HOP-62; first compound 0.1581 µM): 1.12
relative viability (HOP-62; first compound 0.5 µM): 0.844
relative viability (LC-2-ad; first compound 0.005 µM): 0.35
relative viability (LC-2-ad; first compound 0.01581 µM): 0.48
relative viability (LC-2-ad; first compound 0.05 µM): 0.535
relative viability (LC-2-ad; first compound 0.1581 µM): 0.448
relative viability (LC-2-ad; first compound 0.5 µM): 0.427
relative viability (NCI-H1395; first compound 0.005 µM): 1.14
relative viability (NCI-H1395; first compound 0.01581 µM): 1.08
relative viability (NCI-H1395; first compound 0.05 µM): 1.08
relative viability (NCI-H1395; first compound 0.1581 µM): 1.24
relative viability (NCI-H1395; first compound 0.5 µM): 0.945
relative viability (NCI-H1793; first compound 0.005 µM): 0.351
relative viability (NCI-H1793; first compound 0.01581 µM): 0.466
relative viability (NCI-H1793; first compound 0.05 µM): 0.413
relative viability (NCI-H1793; first compound 0.5 µM): 0.438
relative viability (NCI-H1944; first compound 0.005 µM): 1.08
relative viability (NCI-H1944; first compound 0.01581 µM): 1.02
relative viability (NCI-H1944; first compound 0.05 µM): 1.05
relative viability (NCI-H1944; first compound 0.1581 µM): 0.891
relative viability (NCI-H1944; first compound 0.5 µM): 1.1
relative viability (NCI-H1993; first compound 0.005 µM): 0.86
relative viability (NCI-H1993; first compound 0.01581 µM): 0.857
relative viability (NCI-H1993; first compound 0.05 µM): 0.967
relative viability (NCI-H1993; first compound 0.1581 µM): 0.668
relative viability (NCI-H1993; first compound 0.5 µM): 0.836
relative viability (NCI-H2023; first compound 0.005 µM): 0.909
relative viability (NCI-H2023; first compound 0.01581 µM): 1.02
relative viability (NCI-H2023; first compound 0.05 µM): 1.04
relative viability (NCI-H2023; first compound 0.1581 µM): 0.962
relative viability (NCI-H2023; first compound 0.5 µM): 0.954
relative viability (NCI-H2126; first compound 0.005 µM): 0.842
relative viability (NCI-H2126; first compound 0.01581 µM): 0.818
relative viability (NCI-H2126; first compound 0.05 µM): 0.963
relative viability (NCI-H2126; first compound 0.1581 µM): 0.635
relative viability (NCI-H2126; first compound 0.5 µM): 0.857
relative viability (NCI-H2228; first compound 0.005 µM): 1.03
relative viability (NCI-H2228; first compound 0.01581 µM): 0.891
relative viability (NCI-H2228; first compound 0.05 µM): 0.754
relative viability (NCI-H2228; first compound 0.1581 µM): 0.9
relative viability (NCI-H2228; first compound 0.5 µM): 1.24
relative viability (NCI-H23; first compound 0.005 µM): 0.753
relative viability (NCI-H23; first compound 0.01581 µM): 0.718
relative viability (NCI-H23; first compound 0.05 µM): 0.92
relative viability (NCI-H23; first compound 0.1581 µM): 0.652
relative viability (NCI-H23; first compound 0.5 µM): 0.938
relative viability (NCI-H2405; first compound 0.005 µM): 0.861
relative viability (NCI-H2405; first compound 0.01581 µM): 1.09
relative viability (NCI-H2405; first compound 0.05 µM): 0.74
relative viability (NCI-H2405; first compound 0.1581 µM): 1.02
relative viability (NCI-H2405; first compound 0.5 µM): 0.498
relative viability (NCI-H838; first compound 0.005 µM): 1.09
relative viability (NCI-H838; first compound 0.01581 µM): 1.16
relative viability (NCI-H838; first compound 0.05 µM): 1.2
relative viability (NCI-H838; first compound 0.5 µM): 1.12
relative viability (SK-LU-1; first compound 0.005 µM): 0.837
relative viability (SK-LU-1; first compound 0.01581 µM): 0.862
relative viability (SK-LU-1; first compound 0.05 µM): 1.1
relative viability (SK-LU-1; first compound 0.1581 µM): 0.666
relative viability (SK-LU-1; first compound 0.5 µM): 0.806
